Data on ten compounds can be found in the NIST ThermoML archive (doi:10.1021/je201289w).

± gives the expanded uncertainty stated by the source.

The conditions of one series: 283.15 K; 101.33 kPa; Liquid; Vibrating tube method.
Turning to `CCn1cc[n+](C)c1.O=S(=O)([N-]S(=O)(=O)C(F)(F)F)C(F)(F)F`, the mass density is given as 1533.8 ± 2.8 kg/m3.
Same read-out and setting: in the case of `CCOS(=O)(=O)[O-].CCn1cc[n+](C)c1` [1-ethyl-3-methylimidazolium ethyl sulfate] it was 1247.7 ± 1.8 kg/m3; in that of `CCCCn1cc[n+](C)c1.O=S(=O)([N-]S(=O)(=O)C(F)(F)C(F)(F)C(F)(F)C(F)(F)F)C(F)(F)C(F)(F)C(F)(F)C(F)(F)F`, 1629.5 ± 3.1 kg/m3.
The same measure, in the same setting: in the case of `CCn1cc[n+](C)c1.N#C[B-](C#N)(C#N)C#N` [1-ethyl-3-methylimidazolium tetracyanoborate] it was 1041 ± 1.2 kg/m3; in that of `CCn1cc[n+](C)c1.N#CN=C=[N-]` [1-ethyl-3-methylimidazolium dicyanamide], 1111.4 ± 1.4 kg/m3; in that of `CCn1cc[n+](C)c1.O=S(=O)([O-])O` [1-ethyl-3-methylimidazolium hydrogen sulfate], 1376.7 ± 2.2 kg/m3.
Still for that read-out and setting: the figure for `CCn1cc[n+](C)c1.F[B-](F)(F)F` [1-ethyl-3-methylimidazolium tetrafluoroborate] is 1292 ± 1.9 kg/m3; for `CCn1cc[n+](C)c1.N#C[S-]` [1-ethyl-3-methylimidazolium thiocyanate] it is 1124.7 ± 1.4 kg/m3; for `CCn1cc[n+](C)c1.CS(=O)(=O)[O-]` [1-ethyl-3-methylimidazolium methanesulfonate] it is 1252 ± 1.8 kg/m3.
For the compound `CCC[N+]1(C)CCCC1.O=S(=O)([N-]S(=O)(=O)C(F)(F)F)C(F)(F)F`, the mass density is listed as 1441 ± 2.4 kg/m3.

The series is the same for the next values; noted with them: 288.15 K; 101.33 kPa; Liquid; Vibrating tube method.
For `CCn1cc[n+](C)c1.O=S(=O)([N-]S(=O)(=O)C(F)(F)F)C(F)(F)F`, the mass density turned out to be 1528.7 ± 2.7 kg/m3.
Same read-out and setting: in the case of `CCOS(=O)(=O)[O-].CCn1cc[n+](C)c1` [1-ethyl-3-methylimidazolium ethyl sulfate] it was 1244.3 ± 1.8 kg/m3; in that of `CCCCn1cc[n+](C)c1.O=S(=O)([N-]S(=O)(=O)C(F)(F)C(F)(F)C(F)(F)C(F)(F)F)C(F)(F)C(F)(F)C(F)(F)C(F)(F)F`, 1623.4 ± 3.1 kg/m3.
Take `CCn1cc[n+](C)c1.N#C[B-](C#N)(C#N)C#N` [1-ethyl-3-methylimidazolium tetracyanoborate]: the mass density is recorded as 1037 ± 1.2 kg/m3.
Same read-out and setting: the figure for `CCn1cc[n+](C)c1.N#CN=C=[N-]` [1-ethyl-3-methylimidazolium dicyanamide] is 1107.9 ± 1.4 kg/m3; for `CCn1cc[n+](C)c1.O=S(=O)([O-])O` [1-ethyl-3-methylimidazolium hydrogen sulfate] it is 1373.6 ± 2.2 kg/m3; for `CCn1cc[n+](C)c1.F[B-](F)(F)F` [1-ethyl-3-methylimidazolium tetrafluoroborate] it is 1288.2 ± 1.9 kg/m3.
As to `CCn1cc[n+](C)c1.N#C[S-]` [1-ethyl-3-methylimidazolium thiocyanate], the mass density came out at 1121.7 ± 1.4 kg/m3.
Same read-out and setting: the figure for `CCn1cc[n+](C)c1.CS(=O)(=O)[O-]` [1-ethyl-3-methylimidazolium methanesulfonate] is 1248.4 ± 1.8 kg/m3; for `CCC[N+]1(C)CCCC1.O=S(=O)([N-]S(=O)(=O)C(F)(F)F)C(F)(F)F` it is 1436.4 ± 2.4 kg/m3.

The series is the same for the next values; noted with them: 293.15 K; 101.33 kPa; Liquid; Vibrating tube method.
Regarding `CCn1cc[n+](C)c1.O=S(=O)([N-]S(=O)(=O)C(F)(F)F)C(F)(F)F`, the mass density was found to be 1523.6 ± 2.7 kg/m3.
The same measure, in the same setting: in the case of `CCOS(=O)(=O)[O-].CCn1cc[n+](C)c1` [1-ethyl-3-methylimidazolium ethyl sulfate] it was 1241 ± 1.8 kg/m3; in that of `CCCCn1cc[n+](C)c1.O=S(=O)([N-]S(=O)(=O)C(F)(F)C(F)(F)C(F)(F)C(F)(F)F)C(F)(F)C(F)(F)C(F)(F)C(F)(F)F`, 1617.3 ± 3.1 kg/m3.
As to `CCn1cc[n+](C)c1.N#C[B-](C#N)(C#N)C#N` [1-ethyl-3-methylimidazolium tetracyanoborate], the mass density was 1032.9 ± 1.2 kg/m3.
On the same count and under the same terms, in the case of `CCn1cc[n+](C)c1.N#CN=C=[N-]` [1-ethyl-3-methylimidazolium dicyanamide] it was 1104.6 ± 1.4 kg/m3; in that of `CCn1cc[n+](C)c1.O=S(=O)([O-])O` [1-ethyl-3-methylimidazolium hydrogen sulfate], 1370.5 ± 2.2 kg/m3; in that of `CCn1cc[n+](C)c1.F[B-](F)(F)F` [1-ethyl-3-methylimidazolium tetrafluoroborate], 1284.3 ± 1.9 kg/m3.
Same read-out and setting: the figure for `CCn1cc[n+](C)c1.N#C[S-]` [1-ethyl-3-methylimidazolium thiocyanate] is 1118.6 ± 1.4 kg/m3; for `CCn1cc[n+](C)c1.CS(=O)(=O)[O-]` [1-ethyl-3-methylimidazolium methanesulfonate] it is 1245 ± 1.8 kg/m3.
Still for that read-out and setting: the figure for `CCC[N+]1(C)CCCC1.O=S(=O)([N-]S(=O)(=O)C(F)(F)F)C(F)(F)F` is 1431.9 ± 2.4 kg/m3.

Staying with this series, now noted: 298.15 K; 101.33 kPa; Liquid; Vibrating tube method.
Take `CCn1cc[n+](C)c1.O=S(=O)([N-]S(=O)(=O)C(F)(F)F)C(F)(F)F`: the mass density worked out at 1518.5 ± 2.7 kg/m3.
The same measure, in the same setting: the figure for `CCOS(=O)(=O)[O-].CCn1cc[n+](C)c1` [1-ethyl-3-methylimidazolium ethyl sulfate] is 1237.6 ± 1.8 kg/m3.
Take `CCCCn1cc[n+](C)c1.O=S(=O)([N-]S(=O)(=O)C(F)(F)C(F)(F)C(F)(F)C(F)(F)F)C(F)(F)C(F)(F)C(F)(F)C(F)(F)F`: the mass density was 1611.1 ± 3.1 kg/m3.
On to `CCn1cc[n+](C)c1.N#C[B-](C#N)(C#N)C#N` [1-ethyl-3-methylimidazolium tetracyanoborate], for which the mass density is on record as 1028.9 ± 1.2 kg/m3.
On the same count and under the same terms, the figure for `CCn1cc[n+](C)c1.N#CN=C=[N-]` [1-ethyl-3-methylimidazolium dicyanamide] is 1101.2 ± 1.4 kg/m3; for `CCn1cc[n+](C)c1.O=S(=O)([O-])O` [1-ethyl-3-methylimidazolium hydrogen sulfate] it is 1367.4 ± 2.2 kg/m3; for `CCn1cc[n+](C)c1.F[B-](F)(F)F` [1-ethyl-3-methylimidazolium tetrafluoroborate] it is 1280.5 ± 1.9 kg/m3.
Turning to `CCn1cc[n+](C)c1.N#C[S-]` [1-ethyl-3-methylimidazolium thiocyanate], the mass density is listed as 1115.5 ± 1.4 kg/m3.
For the compound `CCn1cc[n+](C)c1.CS(=O)(=O)[O-]` [1-ethyl-3-methylimidazolium methanesulfonate], the mass density is 1241.6 ± 1.8 kg/m3.
Still for that read-out and setting: the figure for `CCC[N+]1(C)CCCC1.O=S(=O)([N-]S(=O)(=O)C(F)(F)F)C(F)(F)F` is 1427.4 ± 2.4 kg/m3.

Still in this series, the particulars now being: 303.15 K; 101.33 kPa; Liquid; Vibrating tube method.
As to `CCn1cc[n+](C)c1.O=S(=O)([N-]S(=O)(=O)C(F)(F)F)C(F)(F)F`, the mass density is 1513.4 ± 2.7 kg/m3.
In the case of `CCOS(=O)(=O)[O-].CCn1cc[n+](C)c1` [1-ethyl-3-methylimidazolium ethyl sulfate], the mass density came out at 1234.3 ± 1.7 kg/m3.
Same read-out and setting: in the case of `CCCCn1cc[n+](C)c1.O=S(=O)([N-]S(=O)(=O)C(F)(F)C(F)(F)C(F)(F)C(F)(F)F)C(F)(F)C(F)(F)C(F)(F)C(F)(F)F` it was 1605 ± 3 kg/m3; in that of `CCn1cc[n+](C)c1.N#C[B-](C#N)(C#N)C#N` [1-ethyl-3-methylimidazolium tetracyanoborate], 1024.9 ± 1.1 kg/m3.
As to `CCn1cc[n+](C)c1.N#CN=C=[N-]` [1-ethyl-3-methylimidazolium dicyanamide], the mass density is 1097.9 ± 1.3 kg/m3.
Still for that read-out and setting: the figure for `CCn1cc[n+](C)c1.O=S(=O)([O-])O` [1-ethyl-3-methylimidazolium hydrogen sulfate] is 1364.3 ± 2.2 kg/m3.
The same measure, in the same setting: in the case of `CCn1cc[n+](C)c1.F[B-](F)(F)F` [1-ethyl-3-methylimidazolium tetrafluoroborate] it was 1276.7 ± 1.9 kg/m3; in that of `CCn1cc[n+](C)c1.N#C[S-]` [1-ethyl-3-methylimidazolium thiocyanate], 1112.4 ± 1.4 kg/m3; in that of `CCn1cc[n+](C)c1.CS(=O)(=O)[O-]` [1-ethyl-3-methylimidazolium methanesulfonate], 1238.2 ± 1.8 kg/m3.
Still for that read-out and setting: the figure for `CCC[N+]1(C)CCCC1.O=S(=O)([N-]S(=O)(=O)C(F)(F)F)C(F)(F)F` is 1422.8 ± 2.4 kg/m3.

The series is the same for the next values; noted with them: 308.15 K; 101.33 kPa; Liquid; Vibrating tube method.
Turning to `CCn1cc[n+](C)c1.O=S(=O)([N-]S(=O)(=O)C(F)(F)F)C(F)(F)F`, the mass density is on record as 1508.4 ± 2.7 kg/m3.
Still for that read-out and setting: the figure for `CCOS(=O)(=O)[O-].CCn1cc[n+](C)c1` [1-ethyl-3-methylimidazolium ethyl sulfate] is 1231 ± 1.7 kg/m3.
The same measure, in the same setting: the figure for `CCCCn1cc[n+](C)c1.O=S(=O)([N-]S(=O)(=O)C(F)(F)C(F)(F)C(F)(F)C(F)(F)F)C(F)(F)C(F)(F)C(F)(F)C(F)(F)F` is 1599.1 ± 3 kg/m3.
Same read-out and setting: the figure for `CCn1cc[n+](C)c1.N#C[B-](C#N)(C#N)C#N` [1-ethyl-3-methylimidazolium tetracyanoborate] is 1020.9 ± 1.1 kg/m3; for `CCn1cc[n+](C)c1.N#CN=C=[N-]` [1-ethyl-3-methylimidazolium dicyanamide] it is 1094.6 ± 1.3 kg/m3.
With `CCn1cc[n+](C)c1.O=S(=O)([O-])O` [1-ethyl-3-methylimidazolium hydrogen sulfate], the mass density was found to be 1361.1 ± 2.2 kg/m3.
Still for that read-out and setting: the figure for `CCn1cc[n+](C)c1.F[B-](F)(F)F` [1-ethyl-3-methylimidazolium tetrafluoroborate] is 1272.9 ± 1.9 kg/m3; for `CCn1cc[n+](C)c1.N#C[S-]` [1-ethyl-3-methylimidazolium thiocyanate] it is 1109.4 ± 1.4 kg/m3; for `CCn1cc[n+](C)c1.CS(=O)(=O)[O-]` [1-ethyl-3-methylimidazolium methanesulfonate] it is 1234.9 ± 1.8 kg/m3.
As to `CCC[N+]1(C)CCCC1.O=S(=O)([N-]S(=O)(=O)C(F)(F)F)C(F)(F)F`, the mass density was determined as 1418.3 ± 2.4 kg/m3.

Staying with this series, now noted: 313.15 K; 101.33 kPa; Liquid; Vibrating tube method.
For `CCn1cc[n+](C)c1.O=S(=O)([N-]S(=O)(=O)C(F)(F)F)C(F)(F)F`, the mass density came to 1503.3 ± 2.7 kg/m3.
Turning to `CCOS(=O)(=O)[O-].CCn1cc[n+](C)c1` [1-ethyl-3-methylimidazolium ethyl sulfate], the mass density was determined as 1227.6 ± 1.7 kg/m3.
Turning to `CCCCn1cc[n+](C)c1.O=S(=O)([N-]S(=O)(=O)C(F)(F)C(F)(F)C(F)(F)C(F)(F)F)C(F)(F)C(F)(F)C(F)(F)C(F)(F)F`, the mass density is 1593.2 ± 3 kg/m3.
`CCn1cc[n+](C)c1.N#C[B-](C#N)(C#N)C#N` [1-ethyl-3-methylimidazolium tetracyanoborate]: the mass density was determined as 1016.9 ± 1.1 kg/m3.
`CCn1cc[n+](C)c1.N#CN=C=[N-]` [1-ethyl-3-methylimidazolium dicyanamide]: the mass density came out at 1091.3 ± 1.3 kg/m3.
The same measure, in the same setting: in the case of `CCn1cc[n+](C)c1.O=S(=O)([O-])O` [1-ethyl-3-methylimidazolium hydrogen sulfate] it was 1357.8 ± 2.1 kg/m3; in that of `CCn1cc[n+](C)c1.F[B-](F)(F)F` [1-ethyl-3-methylimidazolium tetrafluoroborate], 1269.1 ± 1.9 kg/m3.
Still for that read-out and setting: the figure for `CCn1cc[n+](C)c1.N#C[S-]` [1-ethyl-3-methylimidazolium thiocyanate] is 1106.3 ± 1.4 kg/m3; for `CCn1cc[n+](C)c1.CS(=O)(=O)[O-]` [1-ethyl-3-methylimidazolium methanesulfonate] it is 1231.5 ± 1.7 kg/m3; for `CCC[N+]1(C)CCCC1.O=S(=O)([N-]S(=O)(=O)C(F)(F)F)C(F)(F)F` it is 1413.8 ± 2.3 kg/m3.

The same series, now with this note: 318.15 K; 101.33 kPa; Liquid; Vibrating tube method.
For the compound `CCn1cc[n+](C)c1.O=S(=O)([N-]S(=O)(=O)C(F)(F)F)C(F)(F)F`, the mass density was 1498.3 ± 2.6 kg/m3.
Still for that read-out and setting: the figure for `CCOS(=O)(=O)[O-].CCn1cc[n+](C)c1` [1-ethyl-3-methylimidazolium ethyl sulfate] is 1224.3 ± 1.7 kg/m3.
Same read-out and setting: the figure for `CCCCn1cc[n+](C)c1.O=S(=O)([N-]S(=O)(=O)C(F)(F)C(F)(F)C(F)(F)C(F)(F)F)C(F)(F)C(F)(F)C(F)(F)C(F)(F)F` is 1587.4 ± 3 kg/m3; for `CCn1cc[n+](C)c1.N#C[B-](C#N)(C#N)C#N` [1-ethyl-3-methylimidazolium tetracyanoborate] it is 1013 ± 1.1 kg/m3; for `CCn1cc[n+](C)c1.N#CN=C=[N-]` [1-ethyl-3-methylimidazolium dicyanamide] it is 1088 ± 1.3 kg/m3.
